Reference: BindingDB's records for doi:10.7270/Q2C53J9J (University of Pittsburgh, 2010)

Molecular target: T1, Glucose-6-phosphate 1-dehydrogenase (Leuconostoc mesenteroides, UniProt P11411)
T1 sequence (P11411 whole entry): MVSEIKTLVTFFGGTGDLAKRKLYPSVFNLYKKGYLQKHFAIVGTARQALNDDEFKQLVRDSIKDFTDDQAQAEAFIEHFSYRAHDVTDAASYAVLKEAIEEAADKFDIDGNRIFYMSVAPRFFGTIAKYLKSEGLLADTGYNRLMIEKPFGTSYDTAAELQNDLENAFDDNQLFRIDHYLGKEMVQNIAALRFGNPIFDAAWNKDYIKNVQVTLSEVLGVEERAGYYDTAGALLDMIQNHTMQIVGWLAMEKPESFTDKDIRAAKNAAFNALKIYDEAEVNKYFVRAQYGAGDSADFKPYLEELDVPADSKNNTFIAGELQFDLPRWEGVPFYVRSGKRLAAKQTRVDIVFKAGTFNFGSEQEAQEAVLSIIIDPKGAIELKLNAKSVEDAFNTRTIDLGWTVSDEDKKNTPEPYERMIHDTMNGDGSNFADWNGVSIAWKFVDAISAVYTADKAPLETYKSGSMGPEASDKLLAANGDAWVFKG
Experiment: Leuconostoc G6PDH inhibition potency, SAR follow-up, counter-screen for TbHK1 inhibitor project, biochemical, analogue series, IC50 (AID 2579)

Row | Compound | IC50
1 | CCOc1ccc(C(=O)Nc2cc(Cl)ccc2C(=O)O)cc1 [4-chloro-2-[[(4-ethoxyphenyl)-oxomethyl]amino]benzoic acid] | > 25 µM
2 | CCc1ccc(C(=O)Nc2cc(Cl)ccc2C(=O)OC)cc1 [4-chloro-2-[[(4-ethylphenyl)-oxomethyl]amino]benzoic acid methyl ester] | > 25 µM
3 | O=C(Nc1cc(Cl)ccc1C(=O)O)c1ccncc1 [4-chloro-2-[[oxo(pyridin-4-yl)methyl]amino]benzoic acid] | > 25 µM
4 | O=C1CCN(C(=O)Nc2cc(Cl)ccc2C(=O)O)CC1 [4-chloro-2-[[oxo-(4-oxo-1-piperidinyl)methyl]amino]benzoic acid] | > 25 µM
5 | CC(C)c1ccc(C(=O)Nc2cc(Cl)ccc2C(=O)O)cc1 [4-chloro-2-[[oxo-(4-propan-2-ylphenyl)methyl]amino]benzoic acid] | > 25 µM
6 | COc1ccc(C(=O)Nc2cc(C(=O)O)ccc2Cl)cc1 [4-chloro-3-[(4-methoxybenzoyl)amino]benzoic acid] | > 25 µM
7 | COc1ccc(C(=O)Nc2cc(I)ccc2C(=O)O)cc1 [4-iodanyl-2-[(4-methoxyphenyl)carbonylamino]benzoic acid] | > 25 µM
8 | COc1ccc(C(=O)Nc2ccccc2-c2nn[nH]n2)cc1 [4-methoxy-N-[2-(2H-1,2,3,4-tetrazol-5-yl)phenyl]benzamide] | > 25 µM
9 | O=c1c2cc(F)ccc2sn1-c1ccccc1 [5-fluoranyl-2-phenyl-1,2-benzothiazol-3-one] | > 25 µM
10 | Cc1ccccc1-n1sc2cc(F)ccc2c1=O [6-fluoranyl-2-(2-methylphenyl)-1,2-benzothiazol-3-one] | > 25 µM
11 | O=c1c2ccc(F)cc2sn1Cc1ccccc1 [6-fluoro-2-(phenylmethyl)-1,2-benzothiazol-3-one] | > 25 µM
12 | O=c1c2ccc([N+](=O)[O-])cc2sn1-c1ccccc1 [6-nitro-2-phenyl-1,2-benzothiazol-3-one] | > 25 µM
13 | O=C1c2cccc(Br)c2SCN1c1ccccc1 [8-bromanyl-3-phenyl-2H-1,3-benzothiazin-4-one] | > 25 µM
14 | COc1ccc(NC(=O)Cn2sc3ccccc3c2=O)cc1 [KSC-4-269] | > 25 µM
15 | COc1ccc(-n2sc3ccccc3c2=O)cc1 [KSC-6-098] | > 25 µM
16 | CC(=O)Nc1ccc2sn(-c3ccccc3)c(=O)c2c1 [KSC-6-110] | > 25 µM
17 | O=c1c2cc(Br)ccc2sn1-c1ccccc1 [KSC-6-175] | > 25 µM
18 | COc1ccc(NC(=O)c2ccccc2C(=O)O)cc1 [KSC-6-244] | > 25 µM
19 | COc1ccc(C(=O)Nc2cc(Cl)ccc2[N+](=O)[O-])cc1 [KSC-6-266] | > 25 µM
20 | COc1ccc(C(=O)Nc2cc(Cl)ccc2C#N)cc1 [KSC-6-267] | > 25 µM
21 | COc1ccc(C(=O)Nc2cc(F)ccc2C(=O)O)cc1 [KSC-6-276] | > 25 µM
22 | CCc1ccc(C(=O)Nc2cc(Cl)ccc2C(=O)O)cc1 [KSC-6-279] | > 25 µM

Row | Compound | IC50
23 | OB1OCc2cc(C(F)(F)F)ccc21 [KSC-6-287] | > 25 µM
24 | N#Cc1ccc(Oc2ccc3c(c2)B(O)OC3)cc1 [KSC-6-289] | > 25 µM
25 | O=c1c2cc(C(F)(F)F)ccc2sn1-c1ccccc1 [KSC-09-037] | > 25 µM
26 | COc1ccc2sn(-c3ccccc3)c(=O)c2c1 [KSC-09-048] | > 25 µM
27 | CN(C)c1ccc(NC(=O)Cn2sc3ccccc3c2=O)cc1 [KSC-09-127C] | > 25 µM
28 | CN(C)c1cccc(NC(=O)Cn2sc3ccccc3c2=O)c1 [KSC-09-148-9] | > 25 µM
29 | O=C(Cn1sc2ccccc2c1=O)Nc1ccccc1F [KSC-09-149A] | > 25 µM
30 | CC(C)(C)c1ccc(C(=O)Nc2cc(Cl)ccc2C(=O)O)cc1 [KSC-18-037] | > 25 µM
31 | O=c1c2ccccc2sn1-c1cccc(F)c1 [KUC103653N] | > 25 µM
32 | O=c1s[nH]c2ccccc12 [KUC103850N] | > 25 µM
33 | Cn1sc(=O)c2ccccc21 [KUC103851N] | > 25 µM
34 | COc1ccccc1-n1sc2ccccc2c1=O [KUC103854N] | > 25 µM
35 | O=c1c2cc([N+](=O)[O-])ccc2sn1-c1ccccc1 [KUC103868N] | > 25 µM
36 | Cc1ccccc1N1Cc2ccccc2C1=O [KUC103869N] | > 25 µM
37 | COc1ccc(NC(=O)c2ccccc2SCc2ccccc2)cc1 [KUC103881N] | > 25 µM
38 | O=c1c2ccccc2sn1-c1ccc(Cl)cc1Cl [KUC103882N] | > 25 µM
39 | O=C(Cn1sc2ccccc2c1=O)Nc1ccccc1 [KUC104122N] | > 25 µM
40 | CC(=O)Nc1ccc2c(=O)n(-c3ccccc3)sc2c1 [KUC104218N] | > 25 µM
41 | Cc1ccc(NC(=O)Cn2sc3ccccc3c2=O)cc1 [KUC104219N] | > 25 µM
42 | COc1cccc(NC(=O)Cn2sc3ccccc3c2=O)c1 [KUC104220N] | > 25 µM
43 | O=C(Cn1sc2ccccc2c1=O)Nc1cccc(C(F)(F)F)c1 [KUC104221N] | > 25 µM
44 | O=C(Cn1sc2ccccc2c1=O)Nc1cccc(I)c1 [KUC104222N] | > 25 µM

Row | Compound | IC50
45 | N#Cc1ccc2sn(-c3ccccc3)c(=O)c2c1 [KUC104224N] | > 25 µM
46 | O=c1c2cc(F)c(F)cc2sn1-c1ccccc1 [KUC104549N] | > 25 µM
47 | N#Cc1ccc(NC(=O)Cn2sc3ccccc3c2=O)cc1 [KUC104552N] | > 25 µM
48 | CCOC(=O)Cn1sc2ccccc2c1=O [KUC104555N] | > 25 µM
49 | O=C(Nc1ccccc1)n1sc2ccccc2c1=O [KUC105339N] | > 25 µM
50 | O=C(Cn1sc2ccccc2c1=O)Nc1ccc(C(F)(F)F)cc1 [KUC105341N] | > 25 µM
51 | O=C(c1ccccc1)n1sc2ccccc2c1=O [KUC105344N] | > 25 µM
52 | O=C(Cn1sc2ccccc2c1=O)N1CCOCC1 [KUC105406N] | > 25 µM
53 | COc1ccc2c(=O)n(-c3ccccc3)sc2c1 [KUC105410N] | > 25 µM
54 | O=C(Cn1sc2ccccc2c1=O)Nc1ccccc1C(F)(F)F [KUC105610N] | > 25 µM
55 | COc1ccc(C(=O)Nc2cc(OC)ccc2C(=O)O)cc1 [KUC105624N] | > 25 µM
56 | COc1ccc(NC(=O)Nc2ccccc2C(=O)O)cc1 [KUC105625N] | > 25 µM
57 | COc1ccc(C(=O)Nc2ccc(Cl)cc2C(=O)O)cc1 [KUC105713N] | > 25 µM
58 | COc1ccc(-c2cc3ccccc3[nH]2)cc1 [KUC105790N] | > 25 µM
59 | COC(=O)c1ccc(Cl)cc1NC(=O)c1ccc(OC)cc1 [KUC105792N] | > 25 µM
60 | COc1ccc(NC(=O)c2ccc(Cl)cc2C(=O)O)cc1 [KUC105925N] | > 25 µM
61 | O=C(Nc1cc(Cl)ccc1C(=O)O)c1ccsc1 [KUC105926N] | > 25 µM
62 | CC(=O)Nc1cc(Cl)ccc1C(=O)O [KUC105931N] | > 25 µM
63 | O=C(O)c1ccc(Cl)cc1NC(=O)N1CCOCC1 [KUC105933N] | > 25 µM
64 | O=C(Nc1cc(Cl)ccc1C(=O)O)c1cocn1 [KUC105934N] | > 25 µM
65 | COc1ccc(C(=O)Nc2cc(Cl)ccc2-c2nnn[nH]2)cc1 [KUC105991N] | > 25 µM
66 | O=C(Nc1cc(Cl)ccc1C(=O)O)c1ccc(OC(F)(F)F)cc1 [KUC105992N] | > 25 µM

Row | Compound | IC50
67 | COc1ccc(CC(=O)Nc2cc(Cl)ccc2C(=O)O)cc1 [KUC105993N] | > 25 µM
68 | CN(C)c1ccc(C(=O)Nc2cc(Cl)ccc2C(=O)O)cc1 [KUC105997N] | > 25 µM
69 | CCCCCCCC(=O)Nc1cc(Cl)ccc1C(=O)O [KUC106002N] | > 25 µM
70 | O=C(Nc1cc(Cl)ccc1C(=O)O)c1ccc2c(c1)OCO2 [KUC106004N] | > 25 µM
71 | COc1ccc(C(=O)Nc2ccccc2C(=O)O)cc1 [KUC106458N] | > 25 µM
72 | CC(C)c1cccc(C(=O)Nc2cc(Cl)ccc2C(=O)O)c1 [KUC106459N] | > 25 µM
73 | O=C(O)c1ccc(Cl)cc1NC(=O)C1CCOCC1 [KUC106462N] | > 25 µM
74 | O=C(Nc1cc(Cl)ccc1C(=O)O)c1ccc(-c2cccs2)cc1 [KUC106464N] | > 25 µM
75 | O=C(Nc1cc(Cl)ccc1C(=O)O)c1ccc2c(c1)CCC2 [KUC106492N] | > 25 µM
76 | Cc1ccc(C(=O)Nc2cc(Cl)ccc2C(=O)O)cc1C [KUC106495N] | > 25 µM
77 | O=C(Nc1cc(Cl)ccc1C(=O)O)c1ccc(C2CC2)cc1 [KUC106496N] | > 25 µM
78 | O=C(Cn1sc2ccccc2c1=O)Nc1ccccc1Cl [N-(2-chlorophenyl)-2-(3-oxidanylidene-1,2-benzothiazol-2-yl)ethanamide] | > 25 µM
79 | O=C(Cn1sc2ccccc2c1=O)Nc1ccccc1I [N-(2-iodanylphenyl)-2-(3-oxidanylidene-1,2-benzothiazol-2-yl)ethanamide] | > 25 µM
80 | COc1ccccc1NC(=O)Cn1sc2ccccc2c1=O [N-(2-methoxyphenyl)-2-(3-oxidanylidene-1,2-benzothiazol-2-yl)ethanamide] | > 25 µM
81 | COc1ccc(C(=O)Nc2cc(F)cc(F)c2O)cc1 [N-(3,5-difluoro-2-hydroxyphenyl)-4-methoxybenzamide] | > 25 µM
82 | O=C(Cn1sc2ccccc2c1=O)Nc1cccc(Br)c1 [N-(3-bromophenyl)-2-(3-oxo-1,2-benzothiazol-2-yl)acetamide] | > 25 µM
83 | O=C(Cn1sc2ccccc2c1=O)Nc1cccc(F)c1 [N-(3-fluorophenyl)-2-(3-oxo-1,2-benzothiazol-2-yl)acetamide] | > 25 µM
84 | O=C(Cn1sc2ccccc2c1=O)Nc1ccc(Br)cc1 [N-(4-bromophenyl)-2-(3-oxo-1,2-benzothiazol-2-yl)acetamide] | > 25 µM
85 | O=C(Cn1sc2ccccc2c1=O)Nc1ccc(Cl)cc1 [N-(4-chlorophenyl)-2-(3-oxidanylidene-1,2-benzothiazol-2-yl)ethanamide] | > 25 µM
